Reference: patent US20230183243A1, “HETEROARYL DERIVATIVES AND PHARMACEUTICAL COMPOSITION COMPRISING SAME AS ACTIVE INGREDIENT” (VORONOI INC., priority 2019, published 2023)

Legend:
MDA-MB-231 cells = experiment: Inhibition of proliferation of triple-negative breast cancer cells, CellTiter-Glo; assay type: cell-based; settings: Homo sapiens, 120 h; MDA-MB-231, cultured for 5 days
How it was run: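 MDA-MB-231 cells pre-cultured 24 h (5% CO2, 37 °C), then exposed to compound for 5 days at 12 three-fold dilutions, final 10 μM to 0.05 nM. Viability read by CellTiter-Glo luminescence after 10 min at 37 °C; growth inhibition calculated relative to untreated solvent-control cells.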

SHP-77 = experiment: Inhibition of proliferation of small cell lung cancer cells, CellTiter-Glo; assay type: cell-based; settings: Homo sapiens, SHP77, 120 h; SHP-77, cultured for 5 days
How it was run: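 SHP-77 cells at 2,000–3,000 cells/well, cultured 24 h at 37° C, 5% CO2, then given 12 threefold compound dilutions, final 10 μM to 0.05 nM, for 5 days. Viability by CellTiter-Glo luminescence relative to solvent control. GI50 from concentration–response.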

TTK = target: T1, TTK (Homo sapiens, UniProt P33981); experiment: TTK enzyme activity, ADP-Glo kinase assay; assay type: biochemical; parameters: purchased SignalChem T20-10G; settings: purified human TTK, ATP 10 μM, 25° C., 2 hours
T1 sequence (P33981 1-857): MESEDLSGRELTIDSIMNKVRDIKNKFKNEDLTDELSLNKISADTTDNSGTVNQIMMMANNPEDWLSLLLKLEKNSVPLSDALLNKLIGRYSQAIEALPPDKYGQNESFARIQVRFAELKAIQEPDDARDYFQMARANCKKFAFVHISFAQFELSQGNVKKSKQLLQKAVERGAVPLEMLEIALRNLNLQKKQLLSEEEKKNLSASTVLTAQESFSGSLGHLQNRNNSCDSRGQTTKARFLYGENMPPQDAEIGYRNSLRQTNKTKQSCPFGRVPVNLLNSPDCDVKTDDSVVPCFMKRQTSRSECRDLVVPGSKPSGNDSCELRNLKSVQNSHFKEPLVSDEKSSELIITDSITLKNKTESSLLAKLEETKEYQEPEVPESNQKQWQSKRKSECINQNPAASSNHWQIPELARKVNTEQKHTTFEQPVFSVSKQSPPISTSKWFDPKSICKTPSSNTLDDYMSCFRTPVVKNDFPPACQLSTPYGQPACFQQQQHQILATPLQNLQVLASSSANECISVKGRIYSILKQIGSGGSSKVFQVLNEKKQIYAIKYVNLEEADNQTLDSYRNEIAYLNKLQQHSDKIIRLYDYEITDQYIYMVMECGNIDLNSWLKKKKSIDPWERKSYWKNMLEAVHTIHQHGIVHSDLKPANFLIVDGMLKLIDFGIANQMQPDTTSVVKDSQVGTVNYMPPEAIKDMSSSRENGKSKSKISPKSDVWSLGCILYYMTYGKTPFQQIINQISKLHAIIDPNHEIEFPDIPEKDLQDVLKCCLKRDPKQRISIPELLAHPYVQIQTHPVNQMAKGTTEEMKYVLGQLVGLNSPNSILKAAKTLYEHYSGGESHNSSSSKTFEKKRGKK
How it was run: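 ADP-Glo read-out; percent inhibition at each compound concentration was relative to the solvent-only control. The reactions contained 25 ng enzyme, 0.2 μg substrate and 10 μM ATP in 40 mM Tris-HCl pH 7.4 with 20 mM MgCl2, 0.5 mg/mL BSA and 50 μM DTT, and ran 2 h at 25 °C.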

SMILES | GI50 (MDA-MB-231 cells) | GI50 (SHP-77) | IC50 (TTK)
CC(C)S(=O)(=O)CCNc1nc(Nc2ccc(-c3ccnn3C)c3c2OCCO3)nc2[nH]cc(C#N)c12 [Example 83, 4-((2-(isopropylsulfonyl)ethyl)amino)-2-((8-(1-methyl-1H-pyrazol-5-yl)-2,3-dihydrobenzo[b][1,4]dioxin-5-yl)amino)-7H-pyrrolo[2,3-d] pyrimidine-5-carbonitrile 2,2,2-trifluoroacetate] | 100 to 1000 nM | 100 to 1000 nM | < 50 nM
COc1cc(-c2ccccc2)ccc1Nc1nc(NC2CCOCC2)c2c(C#N)c[nH]c2n1 [Example 134, 2-((3-methoxy-[1,1 biphenyl]-4-yl)amino)-4-((tetrahydro-2H-pyran-4-yl)amino)-7H-pyrrolo[2,3-d] pyrimidine-5-carbonitrile] | < 100 nM | < 100 nM | < 50 nM
COCCNc1nc(Nc2ccc(-c3ccnn3C)c3c2OCCO3)nc2[nH]cc(C#N)c12 [Example 49, 4-((2-methoxyethyl)amino)-2-((8-(1-methyl-1H-pyrazol-5-yl)-2,3-dihydrobenzo[b][1,4]dioxin-5-yl)amino)-7H-pyrrolo[2,3-d] pyrimidine-5-carbonitrile] | < 100 nM | < 100 nM | < 50 nM
COc1cc(Nc2nc(NC3CCOC(C)(C)C3)c3c(C#N)c[nH]c3n2)ccc1-c1ccnn1C (stereo not drawn) [Example 162, 4-((2,2-dimethyltetrahydro-2H-pyran-4-yl)amino)-2-((3-methoxy-4-(1-methyl-1H-pyrazol-5-yl)phenyl)amino)-7H-pyrrolo[2,3-d] pyrimidine-5-carbonitrile] | < 100 nM | < 100 nM | < 50 nM
Cn1nccc1-c1ccc(Nc2nc(NC3CCOCC3)c3c(C#N)c[nH]c3n2)c2c1OCCO2 [Example 40, 2-((8-(1-methyl-1H-pyrazol-5-yl)-2,3-dihydrobenzo[b][1,4]dioxin-5-yl)amino)-4-((tetrahydro-2H-pyran-4-yl)amino)-7H-pyrrolo[2,3-d] pyrimidine-5-carbonitrile] | < 100 nM | < 100 nM | < 50 nM
COc1cc(-c2ccnn2C)ccc1Nc1nc(NC2CCCC2)c2cc[nH]c2n1 [Example 113, N^4-cyclopentyl-N^2-(2-methoxy-4-(1-methyl-1H-pyrazol-5-yl)phenyl)-7H-pyrrolo[2,3-d] pyrimidine-2,4-diamine] | 100 to 1000 nM | 100 to 1000 nM | 50 to 200 nM
COc1cc(-c2nncn2C)ccc1Nc1nc(NC2CCOCC2)c2c(C(F)(F)F)c[nH]c2n1 [Example 117, N^2-(2-methoxy-4-(4-methyl-4H-1,2,4-triazol-3-yl)phenyl)-N^4-(tetrahydro-2H-pyran-4-yl)-5-(trifluoromethyl)-7H-pyrrolo[2,3-d] pyrimidine-2,4-diamine] | < 100 nM | < 100 nM | < 50 nM
Cn1cc(-c2ccc(Nc3nc(NC4CCOC(C)(C)C4)c4c(C#N)c[nH]c4n3)c3c2OCCO3)cn1 (stereo not drawn) [Example 145, 4-((2,2-dimethyltetrahydro-2H-pyran-4-yl)amino)-2-((8-(1-methyl-1H-pyrazol-4-yl)-2,3-dihydrobenzo[b][1,4]dioxin-5-yl)amino)-7H-pyrrolo[2,3-d] pyrimidine-5-carbonitrile] | < 100 nM | < 100 nM | < 50 nM
COc1cc(N2CCCCS2(=O)=O)ccc1Nc1nc(NC2CCOCC2)c2c(C(F)(F)F)c[nH]c2n1 [Example 175, 2-(3-methoxy-4-((4-((tetrahydro-2H-pyran-4-yl)amino)-5-(trifluoromethyl)-7H-pyrrolo[2,3-d]pyrimidin-2-yl)amino)phenyl)-1,2-thiazinane 1,1-dioxide] | < 100 nM | < 100 nM | < 50 nM
COc1cc(Nc2nc(NC3CCOCC3)c3c(C#N)c[nH]c3n2)ccc1-c1ccnn1C [Example 119, 2-((3-methoxy-4-(1-methyl-1H-pyrazol-5-yl)phenyl)amino)-4-((tetrahydro-2H-pyran-4-yl)amino)-7H-pyrrolo[2,3-d] pyrimidine-5-carbonitrile] | < 100 nM | < 100 nM | < 50 nM
COc1cc(-c2cnn(C)c2)c(F)cc1Nc1nc(NC2CCCCC2)c2c(C#N)c[nH]c2n1 [Example 126, 4-(cyclohexylamino)-2-((5-fluoro-2-methoxy-4-(1-methyl-1H-pyrazol-4-yl)phenyl)amino)-7H-pyrrolo[2,3-d] pyrimidine-5-carbonitrile] | > 1000 nM | > 1000 nM | < 50 nM
COc1cc(-c2ccnn2C)ccc1Nc1nc(NC2CCOCC2)c2c(C(F)(F)F)c[nH]c2n1 [Example 106, N^2-(2-methoxy-4-(1-methyl-1H-pyrazol-5-yl)phenyl)-N^4-(tetrahydro-2H-pyran-4-yl)-5-(trifluoromethy1)-7H-pyrrolo[2,3-d] pyrimidine-2,4-diamine] | < 100 nM | < 100 nM | 50 to 200 nM
COc1cc(-c2ccnn2C)ccc1Nc1nc(C2=CCCCC2)c2c(C#N)c[nH]c2n1 [Example 129, 4-(cyclohex-1-en-1-yl)-2-((2-methoxy-4-(1-methyl-1H-pyrazol-5-yl)phenyl)amino)-7H-pyrrolo[2,3-d] pyrimidine-5-carbonitrile] | 100 to 1000 nM | 100 to 1000 nM | 200 to 1000 nM
COc1cc(N2CCCS2(=O)=O)ccc1Nc1nc(NC2CCCC2)c2c(C(F)(F)F)c[nH]c2n1 [Example 176, 2-(4-((4-(cyclopentylamino)-5-(trifluoromethyl)-7H-pyrrolo[2,3-d]pyrimidin-2-yl)amino)-3-methoxyphenyl) isothiazolidine 1,1-dioxide] | 100 to 1000 nM | 100 to 1000 nM | 50 to 200 nM
COc1cc(-c2ccnn2C)ccc1Nc1nc(NC2CCCC(F)(F)C2)c2c(C#N)c[nH]c2n1 (stereo not drawn) [Example 152, 4-((3,3-difluorocyclohexyl)amino)-2-((2-methoxy-4-(1-methyl-1H-pyrazol-5-yl)phenyl)amino)-7H-pyrrolo[2,3-d] pyrimidine-5-carbonitrile] | < 100 nM | < 100 nM | 50 to 200 nM
N#Cc1c[nH]c2nc(Nc3ccc(N4CCCCS4(=O)=O)c(F)c3)nc(NC3CCCC3)c12 [Example 57, 4-(cyclopentylamino)-2-((4-(1,1-dioxido-l,2-thiazinan-2-yl)-3-fluorophenyl)amino)-7H-pyrrolo[2,3-d] pyrimidine-5-carbonitrile] | 100 to 1000 nM | < 100 nM | 50 to 200 nM
COc1cc(-c2cnn(C)c2)ccc1Nc1nc(NC2CCOCC2)c2c(C#N)c[nH]c2n1 [Example 92, 2-((2-methoxy-4-(1-methyl-1H-pyrazol-4-yl)phenyl)amino)-4-((tetrahydro-2H-pyran-4-yl)amino)-7H-pyrrolo[2,3-d] pyrimidine-5-carbonitrile] | < 100 nM | < 100 nM | < 50 nM
COc1cc(-c2cnn(C)c2)c(F)cc1Nc1nc(NC2CCOCC2)c2c(C#N)c[nH]c2n1 [Example 124, 2-((5-fluoro-2-methoxy-4-(1-methyl-1H-pyrazol-4-yl)phenyl)amino)-4-((tetrahydro-2H-pyran-4-yl)amino)-7H-pyrrolo[2,3-d] pyrimidine-5-carbonitrile] | < 100 nM | < 100 nM | < 50 nM
